The record followed here is ChEMBL document CHEMBL4433250, “Structure-based design of potent linear peptide inhibitors of the YAP-TEAD protein-protein interaction derived from the YAP omega-loop sequence” (Bioorg Med Chem Lett, 2019).

In assay [1] the target is T1, Transcriptional enhancer factor TEF-3 (Homo sapiens, UniProt Q15561). The experiment in a line: Inhibition of human TEAD4 (217 to 434 residues) expressed in Escherichia coli BL21 (DE3) interaction with N-biotinylated YAP (60 to 100 residues) incubated for 2 hrs by TR-FRET assay. On the technique in general: Time-resolved FRET reads energy transfer from a long-lived donor to a nearby acceptor.

In assay [2] the target is T1, Transcriptional enhancer factor TEF-3. The experiment in a line: Inhibition of TEAD4 in human SF268 ::MCAT-Luc RGA model cells up to 20 uM by YAP/TEAD-dependent luciferase reporter gene assay. (Reporter assays use an easily measured gene product as a stand-in for the process of interest.)
For assay [3] the target is unchanged. Description: Binding affinity to Avi-tagged human TEAD4 (217 to 434 residues) expressed in Escherichia coli BL21 (DE3) by SPR assay. In general terms: SPR reads the build-up and loss of mass on a sensor chip optically.

Activity calls are given as the source filed them. The calls are words filed in the database; no cut-off is given here. Where a SMILES comes first, the peptide text is derived from it. [ ]: non-standard residue; d: D form. Trp(6-Cl) = N[C@@H](Cc1c[nH]c2cc(Cl)ccc12)C(=O)O; Phe(3-F) = N[C@@H](Cc1cccc(F)c1)C(=O)O; 1Nal = N[C@@H](Cc1cccc2ccccc12)C(=O)O; Hyp = O=C(O)[C@@H]1C[C@@H](O)CN1; Cba = N[C@@H](CC1CCC1)C(=O)O; Nle = CCCC[C@H](N)C(=O)O; Ac3c = NC1(C(=O)O)CC1

T1 sequence (Q15561 whole entry, the tested form may be a part): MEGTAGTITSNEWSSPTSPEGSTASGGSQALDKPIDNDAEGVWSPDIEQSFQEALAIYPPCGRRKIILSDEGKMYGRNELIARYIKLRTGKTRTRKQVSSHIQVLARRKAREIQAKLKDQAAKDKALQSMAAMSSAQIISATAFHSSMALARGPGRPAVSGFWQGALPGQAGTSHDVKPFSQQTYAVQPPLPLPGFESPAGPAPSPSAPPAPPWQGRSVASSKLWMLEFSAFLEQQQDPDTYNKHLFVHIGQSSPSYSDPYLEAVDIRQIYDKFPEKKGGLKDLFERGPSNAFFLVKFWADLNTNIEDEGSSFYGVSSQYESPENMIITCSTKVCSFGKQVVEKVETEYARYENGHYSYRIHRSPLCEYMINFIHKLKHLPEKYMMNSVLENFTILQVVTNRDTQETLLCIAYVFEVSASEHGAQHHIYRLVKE

Consider `CCCC[C@H](NC(=O)[C@@H]1CCCN1)C(=O)N[C@@H](CCCNC(=N)N)C(=O)N[C@@H](CC(C)C)C(=O)N[C@@H](CCCNC(=N)N)C(=O)N[C@@H](CCCCN)C(=O)N[C@@H](CC(C)C)C(=O)N1CCC[C@H]1C(=O)N[C@@H](CC(=O)O)C(=O)N[C@@H](CO)C(=O)N[C@@H](Cc1ccccc1)C(=O)N[C@@H](Cc1ccccc1)C(=O)N[C@@H](CCCCN)C(=O)N1CCC[C@H]1C(=O)N1CCC[C@H]1C(=O)O` (H-P[Nle]RLRKLPDSFFKPP-OH), for which the IC50 – broadly, the concentration needed to halve the response being measured – in assay [1] came out at 67700 nM. Still for that read-out and setting: next, `CC(C)C[C@H](NC(=O)[C@H](CCCNC(=N)N)NC(=O)[C@H](Cc1c[nH]c2cc(Cl)ccc12)NC(=O)[C@@H]1CCCN1)C(=O)N[C@@H](CCCNC(=N)N)C(=O)N[C@@H](CCCCN)C(=O)N[C@@H](CC(C)C)C(=O)N1CCC[C@H]1C(=O)N[C@@H](CC(=O)O)C(=O)N[C@@H](CO)C(=O)N[C@@H](Cc1ccccc1)C(=O)N[C@@H](Cc1ccccc1)C(=O)N[C@@H](CCCCN)C(=O)N1CCC[C@H]1C(=O)N1CCC[C@H]1C(=O)O` (H-P[Trp(6-Cl)]RLRKLPDSFFKPP-OH): 5830 nM. The same measure, in the same setting: next, `CC(C)C[C@H](NC(=O)[C@H](CCCNC(=N)N)NC(=O)[C@H](Cc1c[nH]c2cc(Cl)ccc12)NC(=O)[C@@H]1CCCN1)C(=O)N[C@@H](CCCNC(=N)N)C(=O)N[C@@H](CCCCN)C(=O)N[C@@H](CC1CCC1)C(=O)N1CCC[C@H]1C(=O)N[C@@H](CC(=O)O)C(=O)N[C@@H](CO)C(=O)N[C@@H](Cc1ccccc1)C(=O)N[C@@H](Cc1cccc2ccccc12)C(=O)N[C@@H](CCCCN)C(=O)N[C@@H](CCC(=O)O)C(=O)N1CCC[C@H]1C(=O)O` (H-P[Trp(6-Cl)]RLRK[Cba]PDSF[1Nal]KEP-OH): 45 nM; `CC(C)C[C@H](NC(=O)[C@H](CCCNC(=N)N)NC(=O)[C@H](Cc1c[nH]c2cc(Cl)ccc12)NC(=O)[C@@H]1CCCN1)C(=O)N[C@@H](CCCNC(=N)N)C(=O)N[C@@H](CCCCN)C(=O)N[C@@H](CC1CCC1)C(=O)N1CCC[C@H]1C(=O)N[C@@H](CC(=O)O)C(=O)N[C@@H](CO)C(=O)N[C@@H](Cc1ccccc1)C(=O)N[C@@H](Cc1cccc2ccccc12)C(=O)N[C@@H](CCCCN)C(=O)N1CCC[C@H]1C(=O)N1CCC[C@H]1C(=O)O` (H-P[Trp(6-Cl)]RLRK[Cba]PDSF[1Nal]KPP-OH): 216 nM.

In the case of `CC(C)C[C@H](NC(=O)[C@H](CCCNC(=N)N)NC(=O)[C@H](Cc1c[nH]c2cc(Cl)ccc12)NC(=O)[C@@H]1CCCN1)C(=O)N[C@@H](CCCNC(=N)N)C(=O)N[C@@H](CCCCN)C(=O)N[C@@H](CC1CCC1)C(=O)N1C[C@H](O)C[C@H]1C(=O)N[C@@H](CC(=O)O)C(=O)N[C@@H](CO)C(=O)N[C@@H](Cc1ccccc1)C(=O)N[C@@H](Cc1cccc2ccccc12)C(=O)N[C@@H](CCCCN)C(=O)N[C@@H](CCC(=O)O)C(=O)N1CCC[C@H]1C(=O)O` (H-P[Trp(6-Cl)]RLRK[Cba][Hyp]DSF[1Nal]KEP-OH), in assay [2], the inhibition result was “inactive”. Besides, the Kd (as a rule, a measure of binding affinity in units of concentration) in assay [3] was found to be 25 nM. The IC50 in assay [1] came to 16 nM. In the case of `CCCC[C@H](NC(=O)[C@H](CCCCN)NC(=O)[C@H](CCCNC(=N)N)NC(=O)[C@H](CC(C)C)NC(=O)[C@H](CCCNC(=N)N)NC(=O)[C@H](Cc1c[nH]c2cc(Cl)ccc12)NC(=O)[C@@H]1CCCN1)C(=O)N1CCC[C@H]1C(=O)N[C@@H](CC(=O)O)C(=O)N[C@@H](CO)C(=O)N[C@@H](Cc1ccccc1)C(=O)N[C@@H](Cc1ccccc1)C(=O)N[C@@H](CCCCN)C(=O)N1CCC[C@H]1C(=O)N1CCC[C@H]1C(=O)O` (H-P[Trp(6-Cl)]RLRK[Nle]PDSFFKPP-OH), in assay [1], the IC50 came out at 1560 nM. On the same count and under the same terms, in the case of `CCCC[C@H](NC(=O)[C@H](CCCCN)NC(=O)[C@H](CCCNC(=N)N)NC(=O)[C@H](CC(C)C)NC(=O)[C@H](CCCNC(=N)N)NC(=O)[C@H](Cc1c[nH]c2cc(Cl)ccc12)NC(=O)[C@@H]1CCCN1)C(=O)N1CCC[C@H]1C(=O)N[C@@H](CC(=O)O)C(=O)N[C@@H](CO)C(=O)N[C@@H](Cc1ccccc1)C(=O)N[C@@H](Cc1cccc2ccccc12)C(=O)N[C@@H](CCCCN)C(=O)N1CCC[C@H]1C(=O)N1CCC[C@H]1C(=O)O` (H-P[Trp(6-Cl)]RLRK[Nle]PDSF[1Nal]KPP-OH) it was 409 nM; in that of `CCCC[C@H](NC(=O)[C@H](CCCCN)NC(=O)[C@H](CCCNC(=N)N)NC(=O)[C@H](CC(C)C)NC(=O)[C@H](CCCNC(=N)N)NC(=O)[C@H](Cc1c[nH]c2cc(Cl)ccc12)NC(=O)[C@@H]1CCCN1)C(=O)N1CCC[C@H]1C(=O)N[C@@H](CC(=O)O)C(=O)N[C@@H](CO)C(=O)N[C@@H](Cc1cccc(F)c1)C(=O)N[C@@H](Cc1ccccc1)C(=O)N[C@@H](CCCCN)C(=O)N1CCC[C@H]1C(=O)N1CCC[C@H]1C(=O)O` (H-P[Trp(6-Cl)]RLRK[Nle]PDS[Phe(3-F)]FKPP-OH), 2400 nM; in that of `N=C(N)NCCC[C@H](NC(=O)[C@H](Cc1c[nH]c2cc(Cl)ccc12)NC(=O)[C@@H]1CCCN1)C(=O)NC1(C(=O)N[C@@H](CCCNC(=N)N)C(=O)N[C@@H](CCCCN)C(=O)N[C@@H](CC2CCC2)C(=O)N2C[C@H](O)C[C@H]2C(=O)N[C@@H](CC(=O)O)C(=O)N[C@@H](CO)C(=O)N[C@@H](Cc2ccccc2)C(=O)N[C@@H](Cc2cccc3ccccc23)C(=O)N[C@@H](CCCCN)C(=O)N[C@@H](CCC(=O)O)C(=O)N2CCC[C@H]2C(=O)O)CC1` (H-P[Trp(6-Cl)]R[Ac3c]RK[Cba][Hyp]DSF[1Nal]KEP-OH), 9 nM.

With H-PMRLRKLPDSFFKPP-OH, in assay [1], the IC50 is 70000 nM.

Regarding H-PWRLRKLPDSFFKPP-OH, in assay [1], the IC50 stood at 24200 nM.
